Test results taken from patent US20220257741A1, “COMBINATION THERAPY FOR CANCER” (IO Biotech ApS, priority 2016, published 2022).

Experiments:
TC-1 tumour = TC-1 tumour model, IDO-Pep1 with 1-MT (Example 9); assay type: in vivo, C57BL/6 mice; settings: 1-MT 2 mg/ml in drinking water; IDO-Pep1 100 μg/mouse s.c.
Procedure: The efficacy of the vaccines was assessed by overall survival.
4-6 week-old C57BL/6 mice were injected with 70,000 cell/ mouse of TC-1 cells. Treatment in respective groups was started when tumour reached an average size of approximately 0.075 cm^3 (approx. 10 days after tumour inoculation). For vaccination mouse IDO epitope, IDO-Pep1 was used. Mice were vaccinated subcutaneously with IDO Pep-1 at a dosage of 100 μg/mouse in combination with a Pan-HLADR-binding epitope (PADRE; aK-Cha-[sequence]a, 20 μg/mouse) and QuilA (10 μg/mouse). Mice were vaccinated two-three times with one-week interval, and the efficacy of the peptide vaccines was assessed by measuring tumour volume and/or survival. A group of mice were treated with 1-methyl tryptophan (1-MT) given in drinking water (2 mg/ml) for the duration of the study, and additional group of mice were treated with both IDO-Pep1 and 1-MT.

PBMC = assay: Direct IFN-γ ELISpot of patient PBMC stimulated with IO102 peptide; assay type: cell-based, human; settings: patient PBMC at baseline, 5 μM peptide
CMV-specific CD8 T cells = assay: Boost effect on CMV peptide-induced stimulation of T cells (tetramer staining, Example 2); assay type: cell-based; settings: peptide added to CMV stimulated cell cultures, day 15
Procedure: Day 1: • Buffy coat samples were thawed, washed twice, resuspended in medium. Cells were counted. • Cells were then added to the wells of cell culture plates at 5×10^6/0.5 ml in X-VIVO+5% HS • Wells were stimulated with CMV peptide for 2 hours at room temperature. The CMV peptide used was HCMV pp65 495-504 ([…]). • After 2 hours IDO5, IO102 or an irrelevant HIV peptide used as control were added according to Table X and plates incubated for additional 2 hours at room temperature. • Added 1500 microL X-VIVO/5% HS to each well and placed plates in an incubator at 37° C.
Day 2 and 9: • IL2 was added ([…]
Day 8: • Wells were restimulated with IDO5, IO102 or HIV peptides, added according to table X before incubation for 2 hours at room temperature. • After restimulation the contents of each well were split in two and 1.5 ml X-VIVO+5% HS/well was added. • Plates were placed in an incubator at 37° C.
Day 15: • Cells were harvested and analysed by flow cytometry. • The percentage of CMV-specific CD8 T cells in each well was identified by using a CD8 monoclonal antibody (mAb) as well as the tetramer complexes HLA-A2/CMV pp65 495-504. • As control, cells were in addition stained with the tetramer complex HLA-A2/HIV-1 po1476-484 and CD8 mAb (data not shown).

THP-1 cells [1] = assay: 51Cr-release assay, PBMC killing of THP-1 (Example 5); assay type: cell-based; settings: peptide 0.1 μM
Procedure: (§1) Buffycoats were thawed (day 0), washed twice, resuspended in medium, counted and plated into wells as set out in Table Z5. THP-1 cells were irradiated with 30 GY and washed twice in medium. THP-1 cells were counted and added to PBMC containing wells as set out in Table Z5 (total volume 2 ml). Plates were placed in an incubator at 37 degrees. On day 7, 1 ml supernatant/well was removed. Fresh irradiated THP-1 cells were prepared and counted as above and 1 ml added to the wells as shown in Table Z5 Cells were harvested and analyzed for cytotoxic activity on day 23. A standard ^51Cr-release assay was used to measure the cytotoxic potential of the peptide treated PBMCs. ^51Cr labeled THP-1 cells were used as target cells and peptide treated PBMCs as effector cells. Triton-X treated wells was used as maximum measurable lysis and medium alone as minimum lysis.
% specific lysis=((CPMsample−cpmminimum)/(cpmmaximum−cpmminimum))×100%

[2] = tested on: IDO-specific T cell cultures; assay: Intracellular cytokine staining of IO102 stimulated T-cell cultures; assay type: cell-based, human; settings: after four weeks of in vitro IO102 stimulation, patients #02, #05, #07
Procedure: PBMCs were stimulated with IO102 peptide in X-vivo 15 with 5% human AB serum and 120 U/ml IL2 (Novartis, Denmark) in 24 well plates (Nunc, Fischer Scientific). Initially, 20 μM peptide was used, and the cultures were re-stimulated every 7 days with a log10 decreased concentration of peptide for every week. Cell-cultures were supplemented with new IL2 every 7-10 days. Cells were kept at a concentration of 3-4×10^6/well.
For enrichment and expansion of the IDO-specific T cells, cultured cells were restimulated, after four weeks of culture, with 20 μM peptide and enriched with the TNF-α Secretion Assay (Miltenyi Biotec) according to the manufacturer's instructions. Cells were peptide stimulated 2.5 hours before staining with the primary antibody. Enriched cells were expanded in a modified rapid expansion protocol (see below).
T cells enriched for IDO-reactivity were expanded, and approximately 1-2×10^5 cells were used initially. […] Cultures were regularly assessed with regard to cell-numbers and colour of the media, and transferred to T80 or T175 flasks in addition to adding new media if appropriate. Cells were harvested after total 14 days of culture and either analyzed directly or cryopreserved in […] AB serum and 10% dimethyl sulphoxide. […]

THP-1 cells [3] = assay: 51Cr-release assay, PBMC killing of THP-1 (Example 4); assay type: cell-based; settings: peptide 0.1 μM, day 17, range of E/T ratios
Procedure: as §1, with “Z4.” for “Z5.”, “Z4” for “Z5”, “days 7 and 14,” for “day 7,”, “removed.” for “removed. Fresh irradiated THP-1 cells were prepared and counted as above and 1 ml added to the wells as shown in Table Z5”, “17.” for “23.”
% Specific lysis=((cpmsample−cpmminimum)/(cpmmaximum−cpmminimum))×100%

CT26 tumours = assay: CT26 tumour model, prophylactic vaccination (Example 10); assay type: in vivo, BALB/c mice; settings: 100 μg peptide + 30 μg CpG in Montanide, 7 days prior to tumour challenge
Procedure: BALB/c mice were prophylactically vaccinated with a mouse IDO peptide IDO-EP2 ([…]; SEQ ID NO: 34) and challenged with CT26 tumours 7 days later. The efficacy of the peptide vaccine was assessed by tumour burden. The mouse IDO peptide sequence (IDO-Pep1) was selected to provide a murine analog for the human IDO peptides tested in the earlier Examples, because the sequence of murine IDOL differs to that of human IDO1.
6-10 week-old BALB/c mice were immunized by subcutaneous injection at the base of the tail of 100 μg peptide IDO-EP2+30 μg CpG in 100 μL, Montanide adjuvant [Montanide ISA 51 VG (Seppic)] prepared as a 1:1 emulsification. Immunizations were carried out 7 days prior to tumour challenge. For CT26 tumour cell engraftment, each mouse received two subcutaneous injections (one on each flank) of 1×10^5 CT26 in 100 μL serum free DMEM. Caliper measurements of tumour length and width were recorded every 3-4 days beginning at day 6. Tumour volume was calculated using the formula 0.52(L×W^2). Mice were euthanized when the combined tumour volume reached the defined endpoint of approximately 2,000 mm^3.

Cn1cc(C[C@H](N)C(=O)O)c2ccccc21 [1-MT, 1-methyltryptophan]
Therapeutic efficacy (survival) (TC-1 tumour): modest therapeutic efficacy

DTLLKALLEIASCLEKALQVF (listed as Homo sapiens) [IO102, 21 amino acid peptide, residues 194-214 of indoleamine 2,3-dioxygenase]
Pre-treatment IFN-γ ELISpot responses towards IO102 (PBMC): none of the patients had detectable pre-treatment responses | Fraction of CMV-specific T cells (CMV-specific CD8 T cells): larger fraction of CMV-specific T cells compared to adding IDO5/IO101 | Allogenic killing of THP-1 cells compared to control peptide IDO scrambled (THP-1 cells [1]; day 23, E/T ratios 2:1-60:1): enhanced the allogenic killing of the THP-1 cells | Lysis of THP-1 cells compared to IDO5 peptide (THP-1 cells [1]; day 23, low E/T ratios): more efficient lysis of THP-1 cells | Cytokine-positive T cells upon stimulation with IO102 [2]: enrichment of cytokine-positive T cells was demonstrated, primarily CD4+ | Allogenic killing (lysis) of THP-1 cells by PBMCs (THP-1 cells [3]): enhanced the allogenic killing of the THP-1 cells

LPTLSTDGL (listed as Homo sapiens) [IDO-EP2]
Anti-tumour effect (tumour volume) (CT26 tumours): anti-tumour protective effect
